The values below come from PubChem BioAssay AID504760 (National Center for Advancing Translational Sciences (NCATS), 2011).

The data set has as its system mouse plasma stability, LC-MS/MS, 48 h. The data set can be described thus: Inhibitors of Cruzain: Mouse Plasma Stability Profiling. To be noted: at 2 µM; hits give high values. The source says: Chagas Disease is a neglected tropical disease that affects over 16 million people in Latin America. The cysteine protease cruzain is essential for the survival Trypanosoma cruzi, the parasitic agent responsible for Chagas disease. Potential intervention for T. cruzi includes the inhibition of cruzain. This bioassay will summarize the ongoing development of small molecule cruzain inhbitiors. Currently, a screen of ~200k compounds and through extensive follow-up work a probe was identified. To further characterize the probe, it was tested in in vitro ADME assays. The stability of the lead compound in mouse plasma is tested because this parameter has a significant impact on many ADME-concerned properties of drugs, such as uptake, distribution, transport, and bioavailability. NIH Chemical Genomics Center [NCGC] NIH Molecular Libraries Probe Production Centers Network [MLPCN] MLSCN Grant: DA024891-01 PI Name: Dr. Brian Shoichet; University of California, San Francisco
2uM of compound is incubated in mouse plasma; the reference compound is procaine. Compounds are incubated at 37 deg C for the pre-determined time periods and the when aliquots are removed. Samples are analyzed with LC-MS/MS.

Turning to `Cc1ccc(OCCn2c(CCNC(=O)C3CCCCC3)nc3ccccc32)cc1`, the percent remaining is 95%.
